The values below come from patent US20170355705A1 (GlaxoSmithKline Intellectual Property (No.2) Limited, priority 2014, published 2017).

The target in the test is T1, SIRT1 (Homo sapiens, UniProt Q96EB6).
T1 sequence (Q96EB6 1-747): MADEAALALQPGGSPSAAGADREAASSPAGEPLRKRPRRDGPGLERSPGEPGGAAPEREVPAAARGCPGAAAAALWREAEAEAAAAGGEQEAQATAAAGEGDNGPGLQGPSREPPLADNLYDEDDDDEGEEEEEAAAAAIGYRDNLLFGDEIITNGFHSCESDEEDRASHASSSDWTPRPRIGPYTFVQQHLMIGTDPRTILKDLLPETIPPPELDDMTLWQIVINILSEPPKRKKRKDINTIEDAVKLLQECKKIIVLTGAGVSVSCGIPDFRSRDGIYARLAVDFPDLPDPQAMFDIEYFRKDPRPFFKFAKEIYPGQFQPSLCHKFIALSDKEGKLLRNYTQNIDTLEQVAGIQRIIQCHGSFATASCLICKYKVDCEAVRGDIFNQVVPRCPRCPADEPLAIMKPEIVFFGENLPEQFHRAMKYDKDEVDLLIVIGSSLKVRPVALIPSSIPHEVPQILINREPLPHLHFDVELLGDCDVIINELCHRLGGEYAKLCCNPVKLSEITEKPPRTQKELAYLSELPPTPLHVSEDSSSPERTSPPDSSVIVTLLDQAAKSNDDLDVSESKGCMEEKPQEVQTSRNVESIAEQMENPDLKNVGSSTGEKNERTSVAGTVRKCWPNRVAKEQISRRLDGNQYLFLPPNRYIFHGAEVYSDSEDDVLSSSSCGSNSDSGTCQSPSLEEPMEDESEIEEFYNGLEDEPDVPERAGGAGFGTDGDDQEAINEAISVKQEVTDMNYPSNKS
The test can be described thus: Trp mass spectrometry assay of SIRT1 activity (EC1.5, percent maximum activation). The class given is biochemical. As to conditions: Trp mass spectrometry assay; 0.5 μM peptide substrate, 120 μM βNAD+, 10 nM SIRT1, 25 minutes at 25° C. Summed up:
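Sirtuin deacetylation was run with purified N-His SIRT1 and the 5TMR Trp peptide across a compound titration, stopped after 25 min by acidification, and analysed by MS for OAADPR. Endpoint lay within the linear range.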
Take `Cc1cc(-c2ccc3c(n2)N(C(=O)Nc2cnccn2)[C@H]2CCN3C2)cc(C(F)(F)F)n1` [Example 223, (4S)-7-(2-methyl-6-(trifluoromethyl)pyridin-4-yl)-N-(pyrazin-2-yl)-3,4-dihydro-1,4-methanopyrido[2,3-b][1,4]diazepine-5(2H)-carboxamide]: the “TRP Activity (EC1.5, concentration of test compound that results in 150% activation of SIRT1)” value is reported as “A (EC1.5<1 μM)” and the “TRP MAX RESP (percent maximum fold activation)” value is “A (Fold activation ≧150%)”. The matching figures for `O=C(Nc1cccnc1)N1c2nc(-c3ccc(C(F)(F)F)nc3)ccc2N2CC[C@H]1C2` [Example 224, (4S)-N-(pyridin-3-yl)-7-(6-(trifluoromethyl)pyridin-3-yl)-3,4-dihydro-1,4-methanopyrido[2,3-b][1,4]diazepine-5(2H)-carboxamide]: “B (EC1.5 1-25 μM)” and “A (Fold activation ≧150%)”.

Turning to `CCn1cc(-c2ccc3c(n2)N(C(=O)Nc2cnccn2)[C@H]2CCN3C2)cn1` [Example 225, (4S)-7-(1-ethyl-1H-pyrazol-4-yl)-N-(pyrazin-2-yl)-3,4-dihydro-1,4-methanopyrido[2,3-b][1,4]diazepine-5(2H)-carboxamide], the “TRP Activity (EC1.5, concentration of test compound that results in 150% activation of SIRT1)” value is on record as “B (EC1.5 1-25 μM)” and the “TRP MAX RESP (percent maximum fold activation)” value was “A (Fold activation ≧150%)”. Take `O=C(Nc1cnccn1)N1c2nc(-c3ccc(OC(F)F)nc3)ccc2N2CC[C@H]1C2` [Example 226, (4S)-7-(6-(difluoromethoxy)pyridin-3-yl)-N-(pyrazin-2-yl)-3,4-dihydro-1,4-methanopyrido[2,3-b][1,4]diazepine-5(2H)-carboxamide]: the “TRP Activity (EC1.5, concentration of test compound that results in 150% activation of SIRT1)” value is listed as “B (EC1.5 1-25 μM)” and the “TRP MAX RESP (percent maximum fold activation)” value is given as “A (Fold activation ≧150%)”. The like results for `Cc1ccc(-c2ccc3c(n2)N(C(=O)Nc2ccnc(O[C@H]4CCOC4)n2)[C@H]2CCN3C2)cn1` [Example 227, (4S)-7-(6-methylpyridin-3-yl)-N-(2-(((S)-tetrahydrofuran-3-yl)oxy)pyrimidin-4-yl)-3,4-dihydro-1,4-methanopyrido[2,3-b][1,4]diazepine-5(2H)-carboxamide] were, in that order, “B (EC1.5 1-25 μM)” and “A (Fold activation ≧150%)”. The like results for `Cc1cc(-c2ccc3c(n2)N(C(=O)N2CCO[C@H](C)C2)[C@H]2CCN3C2)ccn1.Cl` [Example 232, ((R)-2-methylmorpholino)((4S)-7-(2-methylpyridin-4-yl)-3,4-dihydro-1,4-methanopyrido[2,3-b][1,4]diazepin-5(2H)-yl)methanone hydrochloride] were, in that order, “C (EC1.5>25 μM)” and “B (Fold Activation <150%)”. The like results for `Cn1ccc(-c2ccc3c(n2)N(C(=O)Nc2cccnc2)[C@H]2CCN3C2)cc1=O` [Example 233, (4S)-7-(1-methyl-2-oxo-1,2-dihydropyridin-4-yl)-N-(pyridin-3-yl)-3,4-dihydro-1,4-methanopyrido[2,3-b][1,4]diazepine-5(2H)-carboxamide] were, in that order, “B (EC1.5 1-25 μM)” and “A (Fold activation ≧150%)”. For the molecule `Cc1cc(-c2ccc3c(n2)N(C(=O)N2CCO[C@@H](C)C2)[C@H]2CCN3C2)ccn1.Cl` [Example 234, ((S)-2-methylmorpholino)((4S)-7-(2-methylpyridin-4-yl)-3,4-dihydro-1,4-methanopyrido[2,3-b][1,4]diazepin-5(2H)-yl)methanone hydrochloride], the “TRP Activity (EC1.5, concentration of test compound that results in 150% activation of SIRT1)” value was “C (EC1.5>25 μM)” and the “TRP MAX RESP (percent maximum fold activation)” value was “B (Fold Activation <150%)”.

With `Cc1cc(NC(=O)N2c3nc(-c4ccnc(C)c4)ccc3N3CC[C@H]2C3)ccn1` [Example 235, (4S)-N-7-bis(2-methylpyridin-4-yl)-3,4-dihydro-1,4-methanopyrido[2,3-b][1,4]diazepine-5(2H)-carboxamide], the “TRP Activity (EC1.5, concentration of test compound that results in 150% activation of SIRT1)” value is recorded as “B (EC1.5 1-25 μM)” and the “TRP MAX RESP (percent maximum fold activation)” value is reported as “A (Fold activation ≧150%)”. The matching figures for `Cc1cc(C)c(-c2ccc3c(n2)N(C(=O)Nc2cccnc2)[C@H]2CCN3C2)cn1` [Example 236, (4S)-7-(4,6-dimethylpyridin-3-yl)-N-(pyridin-3-yl)-3,4-dihydro-1,4-methano pyrido[2,3-b][1,4]diazepine-5(2H)-carboxamide]: “B (EC1.5 1-25 μM)” and “A (Fold activation ≧150%)”.

`Cc1ccc(-c2ccc3c(n2)N(C(=O)NCC(C)(C)C)[C@H]2CCN3C2)cn1` [Example 237, (4S)-7-(6-methylpyridin-3-yl)-N-neopentyl-3,4-dihydro-1,4-methanopyrido[2,3-b][1,4]diazepine-5(2H)-carboxamide]: the “TRP Activity (EC1.5, concentration of test compound that results in 150% activation of SIRT1)” value is “C (EC1.5>25 μM)” and the “TRP MAX RESP (percent maximum fold activation)” value is “B (Fold Activation <150%)”. The like results for `Cc1ccc(-c2ccc3c(n2)N(C(=O)Nc2cncc(C)n2)[C@H]2CCN3C2)cn1` [Example 238, (4S)-N-(6-methylpyrazin-2-yl)-7-(6-methylpyridin-3-yl)-3,4-dihydro-1,4-methanopyrido[2,3-b][1,4]diazepine-5(2H)-carboxamide] were, in that order, “B (EC1.5 1-25 μM)” and “A (Fold activation ≧150%)”. `N#Cc1ccc(-c2ccc3c(n2)N(C(=O)Nc2cccnc2)[C@H]2CCN3C2)cn1` [Example 245]: the “TRP MAX RESP (percent maximum fold activation)” value is listed as “A (Fold activation ≧150%)”. On the same count and under the same terms, in the case of `CC(C)n1cc(-c2ccc3c(n2)N(C(=O)Nc2cnccn2)[C@H]2CCN3C2)cn1` [Example 252] it was “A (Fold activation ≧150%)”; in that of `Cc1cc(-c2ccc3c(n2)N(C(=O)Nc2nccc(C)n2)[C@H]2CCN3C2)ccn1` [Example 263], “A (Fold activation ≧150%)”. As for `Cn1ccc(-c2ccc3c(n2)N(C(=O)Nc2cnccn2)[C@H]2CCN3C2)cc1=O` [Example 264], the “TRP MAX RESP (percent maximum fold activation)” value was “A (Fold activation ≧150%)”. Same read-out and setting: then `Cc1cc(-c2ccc3c(n2)N(C(=O)Nc2cc(-c4cnc(C)s4)ccn2)[C@H]2CCN3C2)ccn1` [Example 295], with “A (Fold activation ≧150%)”. `Nc1ccc(-c2ccc3c(n2)N(C(=O)Nc2ccccn2)[C@H]2CCN3C2)cn1` [Example 299]: the “TRP MAX RESP (percent maximum fold activation)” value is “A (Fold activation ≧150%)”. Turning to `CC(C)(CO)COc1cncc(NC(=O)N2c3nc(-c4cccc(C(F)(F)F)c4)ccc3N3CC[C@H]2C3)n1` [Example 304, (4S)-N-(6-(3-hydroxy-2,2-dimethylpropoxy)pyrazin-2-yl)-7-(3-(trifluoromethyl)phenyl)-3,4-dihydro-1,4-methanopyrido[2,3-b][1,4]diazepine-5(2H)-carboxamide], the “TRP Activity (EC1.5, concentration of test compound that results in 150% activation of SIRT1)” value is reported as “A (EC1.5<1 μM)” and the “TRP MAX RESP (percent maximum fold activation)” value is “A (Fold activation ≧150%)”. `O=C(Nc1cncc(OCCCO)n1)N1c2nc(-c3cccc(C(F)(F)F)c3)ccc2N2CC[C@H]1C2` [Example 319]: the “TRP MAX RESP (percent maximum fold activation)” value is reported as “A (Fold activation ≧150%)”.

`CC(C)(CO)COc1nccc(NC(=O)N2c3nc(-c4cccc(C(F)(F)F)c4)ccc3N3CC[C@H]2C3)n1` [Example 321, (4S)-N-(2-(3-hydroxy-2,2-dimethylpropoxy)pyrimidin-4-yl)-7-(3-(trifluoromethyl)phenyl)-3,4-dihydro-1,4-methanopyrido[2,3-b][1,4]diazepine-5(2H)-carboxamide]: the “TRP Activity (EC1.5, concentration of test compound that results in 150% activation of SIRT1)” value is on record as “B (EC1.5 1-25 μM)” and the “TRP MAX RESP (percent maximum fold activation)” value is on record as “A (Fold activation ≧150%)”.

In the case of `Cc1nn(C)cc1-c1ccnc(NC(=O)N2c3nc(-c4ccnc(C(F)(F)F)c4)ccc3N3CC[C@H]2C3)c1` [Example 324], the “TRP MAX RESP (percent maximum fold activation)” value was “A (Fold activation ≧150%)”. With `Cc1cc(-c2ccc3c(n2)N(C(=O)Nc2cc(-c4coc(C)n4)ccn2)[C@H]2CCN3C2)ccn1.Cl` [Example 334, (4S)-N-(4-(2-methyloxazol-4-yl)pyridin-2-yl)-7-(2-methylpyridin-4-yl)-3,4-dihydro-1,4-methanopyrido[2,3-b][1,4]diazepine-5(2H)-carboxamide], the “TRP Activity (EC1.5, concentration of test compound that results in 150% activation of SIRT1)” value is “A (EC1.5<1 μM)” and the “TRP MAX RESP (percent maximum fold activation)” value was “A (Fold activation ≧150%)”.
